Source: patent publication US9302991B2, “Arylamide derivatives as TTX-S blockers” (RaQualia Pharma Inc., priority 2010, dated 2016)

What follows are molecules tested against T1, human Nav1.7 channels (Homo sapiens, UniProt Q15858) (assay: FRET assay, human Nav1.7 (EFS on FDSS)). Details: CHO cells expressing human Nav1.7, read-out: IC50 against Nav1.7.
T1 construct: expressed in transfected cells; host or cells: CHO
Format: cell-based
Procedure, shortened: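 IC50 was derived from normalized 440 nm fluorescence ratios of the EFS-evoked membrane-potential response read on FDSS. Recombinant CHO cells were sequentially dye-loaded with coumarin/oxonol FRET pair at room temperature in pH 7.4 buffer before compound addition.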

T1 sequence (Q15858 whole entry): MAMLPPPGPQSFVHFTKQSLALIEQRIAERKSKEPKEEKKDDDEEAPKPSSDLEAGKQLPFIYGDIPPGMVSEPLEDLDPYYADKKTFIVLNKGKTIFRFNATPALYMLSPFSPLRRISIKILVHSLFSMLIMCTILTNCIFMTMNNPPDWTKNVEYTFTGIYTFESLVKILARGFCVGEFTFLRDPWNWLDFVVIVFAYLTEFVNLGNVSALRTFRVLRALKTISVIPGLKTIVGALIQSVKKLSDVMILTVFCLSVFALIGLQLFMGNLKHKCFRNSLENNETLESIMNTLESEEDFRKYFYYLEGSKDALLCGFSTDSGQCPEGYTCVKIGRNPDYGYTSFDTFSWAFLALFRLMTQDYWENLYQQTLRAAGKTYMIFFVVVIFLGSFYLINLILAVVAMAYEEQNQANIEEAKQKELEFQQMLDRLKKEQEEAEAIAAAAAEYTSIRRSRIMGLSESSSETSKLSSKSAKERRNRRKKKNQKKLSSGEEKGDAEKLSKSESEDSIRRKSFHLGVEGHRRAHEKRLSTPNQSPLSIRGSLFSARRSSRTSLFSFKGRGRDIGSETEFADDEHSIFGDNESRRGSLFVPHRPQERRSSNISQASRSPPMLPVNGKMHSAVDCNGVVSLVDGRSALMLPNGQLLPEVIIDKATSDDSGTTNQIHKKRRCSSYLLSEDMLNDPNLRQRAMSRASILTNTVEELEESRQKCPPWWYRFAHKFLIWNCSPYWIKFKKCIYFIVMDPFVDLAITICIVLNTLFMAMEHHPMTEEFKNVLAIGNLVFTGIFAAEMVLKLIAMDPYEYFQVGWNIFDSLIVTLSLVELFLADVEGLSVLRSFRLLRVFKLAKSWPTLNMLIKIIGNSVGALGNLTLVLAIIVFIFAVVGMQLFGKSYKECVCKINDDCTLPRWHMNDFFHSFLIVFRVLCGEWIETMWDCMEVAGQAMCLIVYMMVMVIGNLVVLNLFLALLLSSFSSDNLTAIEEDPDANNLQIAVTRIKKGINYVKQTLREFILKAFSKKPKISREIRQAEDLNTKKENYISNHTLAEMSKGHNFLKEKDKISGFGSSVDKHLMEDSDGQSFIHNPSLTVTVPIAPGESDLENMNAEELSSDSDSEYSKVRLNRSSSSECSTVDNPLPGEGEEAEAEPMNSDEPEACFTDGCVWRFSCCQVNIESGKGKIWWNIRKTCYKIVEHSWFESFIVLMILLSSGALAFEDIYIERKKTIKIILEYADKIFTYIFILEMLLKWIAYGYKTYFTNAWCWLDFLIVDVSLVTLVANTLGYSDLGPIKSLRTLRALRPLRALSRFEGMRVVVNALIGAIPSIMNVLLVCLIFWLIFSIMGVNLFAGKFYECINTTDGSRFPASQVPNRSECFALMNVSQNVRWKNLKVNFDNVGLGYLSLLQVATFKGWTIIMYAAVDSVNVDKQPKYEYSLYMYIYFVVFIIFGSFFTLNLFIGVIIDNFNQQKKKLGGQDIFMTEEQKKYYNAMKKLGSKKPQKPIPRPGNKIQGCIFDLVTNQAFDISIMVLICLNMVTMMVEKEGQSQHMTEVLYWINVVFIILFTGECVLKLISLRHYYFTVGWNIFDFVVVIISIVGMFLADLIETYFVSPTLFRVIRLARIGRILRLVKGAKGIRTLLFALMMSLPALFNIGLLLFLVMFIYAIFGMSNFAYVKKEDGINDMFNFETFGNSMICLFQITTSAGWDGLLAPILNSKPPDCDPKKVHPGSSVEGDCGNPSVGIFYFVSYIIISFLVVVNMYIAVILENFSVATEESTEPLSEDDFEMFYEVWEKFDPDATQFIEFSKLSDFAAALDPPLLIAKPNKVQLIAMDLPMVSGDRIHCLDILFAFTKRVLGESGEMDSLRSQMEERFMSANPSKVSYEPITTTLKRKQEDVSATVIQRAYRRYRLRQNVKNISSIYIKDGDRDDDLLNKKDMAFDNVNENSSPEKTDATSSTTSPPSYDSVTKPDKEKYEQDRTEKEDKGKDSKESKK

IC50, < 1000 nM:
CC(C)C(=O)Nc1cc(C(=O)NCc2ccc(OCC(F)(F)F)nc2N2CCOCC2)ccn1 [Example 282, 2-isobutyramido-N-((2-morpholino-6-(2,2,2-trifluoroethoxy)pyridin-3-yl)methyl)isonicotinamide]
CCC(=O)Nc1cc(C(=O)NC(C)c2ccc(OCC(F)(F)C(F)F)nc2)ccn1 (single isomer, unassigned) [Example 653, 2-propionamido-N-(1-(6-(2,2,3,3-tetrafluoropropoxy)pyridin-3-yl)ethyl)isonicotinamide]
CC(=O)Nc1cc(C(=O)NC(C)c2cnc(OCC(F)F)c(C)c2)cc(C)n1 (single isomer, unassigned) [Example 556, 2-acetamido-N-(1-(6-(2,2-difluoroethoxy)-5-methylpyridin-3-yl)ethyl)-6-methylisonicotinamide]
CC(=O)Nc1cc(C(=O)NCc2ccc(OCC(F)(F)F)nc2N2CCCCC2)cc(C)n1 [Example 307, 2-acetamido-6-methyl-N-((2-(piperidin-1-yl)-6-(2,2,2-trifluoroethoxy)pyridin-3-yl)methyl)isonicotinamide]
COc1cc(CNC(=O)c2cc(C)nc(NC(=O)C(C)C)c2)ccc1OCC(F)(F)F [Example 885, 2-isobutyramido-N-(3-methoxy-4-(2,2,2-trifluoroethoxy)benzyl)-6-methylisonicotinamide]
Cc1cc(C(=O)NCc2cnc(OCC(F)F)c(Cl)c2)cc(NC(=O)C(C)C)n1 [Example 620, N-((5-chloro-6-(2,2-difluoroethoxy)pyridin-3-yl)methyl)-2-isobutyramido-6-methylisonicotinamide]
Cc1cc(C(=O)NC(C)c2cnc(OCC(F)F)c(C)c2)nc(NC(=O)C2CC2)n1 (single isomer, unassigned) [Example 559, 2-(cyclopropanecarboxamido)-N-(1-(6-(2,2-difluoroethoxy)-5-methylpyridin-3-yl)ethyl)6-methylpyrimidine-4-carboxamide]
CCc1cc(CNC(=O)c2ccnc(NC(=O)C(C)C)c2)cnc1OCC(F)F [Example 910, N-((6-(2,2-difluoroethoxy)-5-ethylpyridin-3-yl)methyl)-2-isobutyramidoisonicotinamide]
CC(NC(=O)c1ccnc(NC(=O)C2CC2)n1)c1ccc(OCC(F)(F)F)cc1 (single isomer, unassigned) [Example 405, 2-(cyclopropanecarboxamido)-N-(1-(4-(2,2,2-trifluoroethoxy)phenyl)ethyl)pyrimidine-4-carboxamide]
CCC(=O)Nc1cc(C(=O)NC(C)c2ccc(OCC(F)F)cc2Cl)ccn1 (single isomer, unassigned) [Example 1116, N-(1-(2-chloro-4-(2,2-difluoroethoxy)phenyl)ethyl)-2-propionamidoisonicotinamide]
COc1cc(C(C)NC(=O)c2ccnc(NC(=O)C3CC3)c2)cnc1OCC(F)(F)F (single isomer, unassigned) [Example 143, 2-(cyclopropanecarboxamido)-N-(1-(5-methoxy-6-(2,2,2-trifluoroethoxy)pyridin-3-yl)ethyl)isonicotinamide]
CC(=O)Nc1cc(C(=O)NCc2cccc(OCC(F)(F)F)n2)ccn1 [Example 22, 2-acetamido-N-((6-(2,2,2-trifluoroethoxy)pyridin-2-yl)methyl)isonicotinamide]
CC(=O)Nc1cc(C(=O)NC(C)c2cccc(SC(F)(F)F)c2)cc(C)n1 (single isomer, unassigned) [Example 1031, 2-acetamido-6-methyl-N-(1-(3-((trifluoromethyl)thio)phenyl)ethyl)isonicotinamide]
Cc1cc(C(=O)NC(C)c2ccc(OCC(F)(F)C(F)(F)F)nc2)cc(NC(=O)C(C)C)n1 (single isomer, unassigned) [Example 693, 2-isobutyramido-6-methyl-N-(1-(6-(2,2,3,3,3-pentafluoropropoxy)pyridin-3-yl)ethyl)isonicotinamide]
COc1cc(CNC(=O)c2ccnc(NC(=O)C3CC3)c2)ccc1OCC(F)(F)F [Example 1102, 2-(cyclopropanecarboxamido)-N-(3-methoxy-4-(2,2,2-trifluoroethoxy)benzyl)isonicotinamide]
CCC(=O)Nc1cc(C(=O)NCc2cccc(C(F)(F)F)c2F)ccn1 [Example 1012, N-(2-fluoro-3-(trifluoromethyl)benzyl)-2-propionamidoisonicotinamide]
Cc1cc(C(=O)NC(C)c2ccc(OCC(F)(F)F)c(Cl)c2)nc(NC(=O)C2CC2)n1 (single isomer, unassigned) [Example 679, N-(1-(3-chloro-4-(2,2,2-trifluoroethoxy)phenyl)ethyl)-2-(cyclopropanecarboxamido)-6-methylpyrimidine-4-carboxamide]
Cc1cc(CNC(=O)c2ccnc(NC(=O)C3CC3)n2)ccc1OCC(F)F [Example 992, 2-(cyclopropanecarboxamido)-N-(4-(2,2-difluoroethoxy)-3-methylbenzyl)pyrimidine-4-carboxamide]
Cc1cc(C(=O)NC(C)c2cccc(OC(F)(F)F)c2)cc(NC(=O)C(C)(C)O)n1 (single isomer, unassigned) [Example 421, 2-(2-hydroxy-2-methylpropanamido)-6-methyl-N-(1-(3-(trifluoromethoxy)phenyl)ethyl)isonicotinamide]
CC(=O)Nc1cc(C(=O)NCc2cnc(OCC(F)F)cc2C)cc(C)n1 [Example 778, 2-acetamido-N-((6-(2,2-difluoroethoxy)-4-methylpyridin-3-yl)methyl)-6-methylisonicotinamide]
